The subject of one test is Aspergillus fumigatus. Briefly: Antimycotic in-vitro activity, serial dilution test (MIC). Type of test: cell-based. The conditions noted are these: Sabouraud's milieu d'epreuve, 28-37 °C, 96 h, inoculum 5 x 10^3 to 10^4 germs/ml, read-out: MHK-Werte in γ/ml Nährmedium, Aspergillus fumigatus. As for the experimental part: (§1) Die in-vitro-Prüfungen wurden im Reihenverdünnungstest mit Keiminokula von durchschnittlich 5 x 10³ bis 10⁴ Keimen/ml Substrat durchgeführt. Als Nähmedium dienten • a) für Dermatophyten und Schimmelpilze: Sabouraud's milieu d'epreuve • b) für Hefen: Fleischextrakt-Traubenzucker-Bouillon.
(§2) Die Bebrütungstemperatur betrug 28 °C bis 37 °C, die Bebrütungsdauer lag bei 24 bis 96 Stunden bei Hefen und 96 Stunden bei Dermatophyten und Schimmelpilzen.

The next test has as its system Candida albicans. Described as above. Type of test: cell-based. The conditions noted are these: Fleischextrakt-Traubenzucker-Bouillon, 28-37 °C, 24-96 h, inoculum 5 x 10^3 to 10^4 germs/ml, read-out: MHK-Werte in γ/ml Nährmedium, Candida albicans. As to the method: as §1, §2
The next test has as its system Microsporum canis. The test is described as above. Type of test: cell-based. The conditions noted are these: Sabouraud's milieu d'epreuve, 28-37 °C, 96 h, inoculum 5 x 10^3 to 10^4 germs/ml, read-out: MHK-Werte in γ/ml Nährmedium, Microsporum canis. As for the experimental part:
as §1, §2

The next test relates to Torulopsis glabrata. Described as above. Type of test: cell-based. The conditions noted are these: Nakaseomyces glabratus; Fleischextrakt-Traubenzucker-Bouillon; 28-37 °C, 24-96 h; inoculum 5 x 10^3 to 10^4 germs/ml; read-out: MHK-Werte in γ/ml Nährmedium, Torulopsis glabrata. As for the experimental part:
as §1, §2

A further test deals with Trichophyton mentagr. The test is described as above. The test is classed as cell-based. The conditions noted are these: Sabouraud's milieu d'epreuve, 28-37 °C, 96 h, inoculum 5 x 10^3 to 10^4 germs/ml, read-out: MHK-Werte in γ/ml Nährmedium, Trichophyton mentagr. As for the experimental part:
as §1, §2

The next test concerns Candida-Zellen. The test can be described thus: Antimycotic in-vivo activity (oral) in mouse candidosis. Also noted: species or system Mäuse vom Typ SPF-CF1. The conditions noted are these: for Wirkung (Überlebende am 6. Tag p.i.): mice infected i.v. with Candida, 25-100 mg/kg oral, 1 h before and 7 h after infection; for Wirkung compared with (A) and (B): mouse candidosis, oral, statement in words. As to the method:
Mäuse vom Typ SPF-CF₁ wurden intravenös mit 1 - 2 x 10⁶ logarithmisch wachsenden Candida-Zellen, die in physiologischer Kochsalzlösung suspendiert werden, infiziert. Eine Stunde vor und sieben Stunden nach der Infektion werden die Tiere mit jeweils 25 - 100 mg/kg Körpergewicht der Präparate oral behandelt.
Unbehandelte Tiere starben 3 bis 6 Tage post infektionem. Die Überlebensrate am 6.Tag post infektionem betrug bei unbehandelten Kontrolltieren etwa 5 %.

Test [1] has as its system Trichophyton mentagrophytes. The test can be described thus: In-vivo activity (local) in experimental guinea pig trichophytosis. Further details: species or system Meerschweinchen der Rasse Pirbright-white. The conditions noted are these: for Wirkung (Infektionszeichen): 0,1 % solution in Dimethylsulfoxid : Glycerin = 1 : 4, local, once daily from day 3 p.i.; for Wirkung (in words): guinea pig trichophytosis, local, 0,1 % solution, statement in words. From the text:
Weiße Meerschweinchen der Rasse Pirbright-white wurden auf dem geschorenen, nicht skarifizierten Rücken mit einer Mikro- und Makrokoniden-Suspension von Trichophyton mentagrophytes infiziert.
Die infizierten Tiere wurden beginnend mit dem 3.Tag p.i. 1 x täglich mit einer 0,1 %igen Lösung der erdingungsgemäßen Präparate (in Dimethylsulfoxid : Glycerin = 1 : 4) lokal behandelt.
Bei unbehandelten Tieren entwickelte sich innerhalb von 12 Tagen p.i. das Typische Bild einer Dermatophytose mit Rötung, Schuppung und Haarausfall bis zum totalen Integument-Defekt an der Infektionsstelle.

Converted amounts (≈) assume the structure as drawn. Some results are limits rather than exact numbers.

Consider `CCSCC(O)(Cn1cncn1)C(C)(C)Cc1ccc(OC(F)(F)F)cc1` (stereo not shown) [I-52], for which the MIC in the test on Aspergillus fumigatus was under 1 µg/mL; in the test on Candida albicans it was under 1 µg/mL; with Microsporum canis, 2 µg/mL (≈ 4.96 µM); in the test on Torulopsis glabrata, 16 µg/mL (≈ 39.7 µM); in the test with Trichophyton mentagr., under 1 µg/mL. The “Wirkung (Überlebende am 6. Tag p.i.)” value with Candida-Zellen is given as “++++ (= gute Wirkung = 80 % Überlebende am 6.Tag.p.i.)”. Moreover, the “Wirkung compared with (A) and (B)” value with Candida-Zellen is listed as “bessere Wirkung”. Also, in test [1], the “Wirkung (Infektionszeichen)” value is on record as “+++++”. Besides, the “Wirkung (in words)” value in test [1] is reported as “sehr gute Wirkung”.

For `CC(C)SCC(O)(Cn1cncn1)C(C)(C)Cc1ccc(Br)cc1` (stereo not shown) [I-40], the MIC was under 1 µg/mL with Aspergillus fumigatus; under 1 µg/mL in the test on Candida albicans; 2 µg/mL (≈ 4.85 µM) in the test on Microsporum canis; under 1 µg/mL with Torulopsis glabrata; under 1 µg/mL in the test on Trichophyton mentagr.. In the test on Candida-Zellen, the “Wirkung (Überlebende am 6. Tag p.i.)” value is given as “+++ (= Wirkung = 60 % Überlebende am 6.Tag.p.i.)”. The “Wirkung compared with (A) and (B)” value in the test on Candida-Zellen is on record as “bessere Wirkung”. Further, in test [1], the “Wirkung (Infektionszeichen)” value was “++++ (gute Wirkung = geringe Rötung, vereinzelt Schuppen)”. In test [1], the “Wirkung (in words)” value was “gute”.

In the case of `CC(C)SCC(O)(Cn1cncn1)C(C)(C)Cc1ccc(SC(F)(F)F)cc1` (stereo not shown) [I-62], the MIC in the test with Aspergillus fumigatus is 2 µg/mL (≈ 4.61 µM); with Candida albicans, under 1 µg/mL; with Microsporum canis, under 1 µg/mL; with Torulopsis glabrata it was under 1 µg/mL; in the test on Trichophyton mentagr. it was under 1 µg/mL. The “Wirkung (Überlebende am 6. Tag p.i.)” value with Candida-Zellen is given as “++ (= schwache Wirkung = 40 % Überlebende am 6.Tag.p.i.)”. Moreover, in the test on Candida-Zellen, the “Wirkung compared with (A) and (B)” value is on record as “bessere Wirkung”.

The record behind these values is EP0258782A2, “Use of 1-(substituted mercapto-hydroxyethyl)-triazoles in the treatment of illnesses” (BAYER AG, priority 1986, dated 1988).
